Values after ≈ are worked out from the molar mass of the structure shown.
Key:
Assay type in all cases: cell-based
HIV-1/181-Cys = test: Inhibition of HIV-1 induced syncytium formation in CEM cells, RT mutant 181-Cys; details: Table 2B, day 4, averages of 2 to 3 independent experiments; for EC50: Human immunodeficiency virus 1, CCRF-CEM, 96 h, read-out: Antiviral Activity of Comparative Compounds EC50, 181-Cys
Text: (§1) CEM cells were obtained from the American Tissue Cell Culture Collection (Rockville, Md.). HIV-1(IIIB) was originally obtained from the culture supernatant of persistently HIV-1-infected H9 cells and was provided by R. C. Gallo and M. Popovic (National Cancer Institute, National Institutes of Health, Bethesda, Md.). […] 67: 5353-5359 (1993); HIV-1/Lys-138 ("Lys-138") was selected for resistance against TSAO-m^3T as described in Balzarini et al, Virology 192: 246-253 (1993) and Balzarini et al, Proc. Nat. Acad. Sci. USA 90: 6952-6956 (1993); HIV-1/181-Cys ("181-Cys") was selected for resistance against pyridinone L-697,661 as described in Balzarini et al, Virology 192: 246-253 (1993); and HIV-1/188-His ("188-His") was selected for resistance against HEPT as described in Balzarini et al, Mol. Pharmocol. 44: 694-701 (1993). 188-His was then further converted to HIV-1/188-Leu "188-Leu") upon further passage in cell culture in the absence of the HEPT.
(§2) CEM cells were suspended at ≈300,000 cells per ml of culture medium and infected with approximately 100 CCID50 (CCID50 being the 50% cell culture infective dose) of HIV-1(IIIB) or one of the HIV-1 RT mutant strains described above. Then 100 μl of the infected cell suspensions was added to 200 μl microtiter plate wells containing 100 μl of appropriate serial (5-fold) dilutions of the test compounds. The inhibitory effect of the test compounds on HIV-1 induced syncytium formation in CEM cells was examined microscopically on day 4 post infection.

in vitro = details: human, cem cells, CC50 (50% cytostatic concentration), Table 2B; CEM cell proliferation; averages of 2 to 3 independent experiments
Text: as §1
^b 50% cytostatic concentration (i.e., compound concentration require
to inhibit CEM cell proliferation by 50%)

HIV-1/100-Ile = test: Inhibition of HIV-1 induced syncytium formation in CEM cells, RT mutant 100-Ile; details: Table 2B, day 4, averages of 2 to 3 independent experiments; for EC50: Human immunodeficiency virus 1, CCRF-CEM, 96 h, read-out: Antiviral Activity of Comparative Compounds EC50, 100-Ile
Text: as §1, §2

HIV-1/103-Asn = test: Inhibition of HIV-1 induced syncytium formation in CEM cells, RT mutant 103-Asn; details: Human immunodeficiency virus 1, CCRF-CEM, 96 h, Table 2B, day 4, averages of 2 to 3 independent experiments, read-out: Antiviral Activity of Comparative Compounds EC50, 103-Asn
Text: as §1, §2

HIV-1(IIIB) = test: Inhibition of HIV-1 induced syncytium formation in CEM cells, wild type; details: Table 2B, WT = HIV-1(IIIB), day 4, averages of 2 to 3 independent experiments; for EC50: Human immunodeficiency virus 1, IIIB, CCRF-CEM, 96 h, read-out: Antiviral Activity of Comparative Compounds EC50, WT
Text: as §1, §2

HIV-1/Lys-138 = test: Inhibition of HIV-1 induced syncytium formation in CEM cells, RT mutant 138-Lys; details: Table 2B, day 4, averages of 2 to 3 independent experiments; for EC50: Human immunodeficiency virus 1, CCRF-CEM, 96 h, read-out: Antiviral Activity of Comparative Compounds EC50, 138-Lys
Text: as §1, §2

HIV-1/106-Ala = test: Inhibition of HIV-1 induced syncytium formation in CEM cells, RT mutant 106-Ala; details: Table 2B, day 4, averages of 2 to 3 independent experiments; for EC50: Human immunodeficiency virus 1, CCRF-CEM, 96 h, read-out: Antiviral Activity of Comparative Compounds EC50, 106-Ala
Text: as §1, §2

HIV-1/188-Leu = test: Inhibition of HIV-1 induced syncytium formation in CEM cells, RT mutant 188-Leu; details: Human immunodeficiency virus 1, CCRF-CEM, 96 h, Table 2B, day 4, averages of 2 to 3 independent experiments, read-out: Antiviral Activity of Comparative Compounds EC50, 188-Leu
Text: as §1, §2

SMILES	EC50 (HIV-1/181-Cys) [µg/mL]	CC50 (in vitro) [µg/mL]	EC50 (HIV-1/100-Ile) [µg/mL]	EC50 (HIV-1/103-Asn) [µg/mL]	EC50 (HIV-1(IIIB)) [µg/mL]	EC50 (HIV-1/Lys-138) [µg/mL]	EC50 (HIV-1/106-Ala) [µg/mL]	EC50 (HIV-1/188-Leu) [µg/mL]	Antiviral Activity of Comparative Compounds EC50, 181-Cys (HIV-1/181-Cys) [µg/mL]	Antiviral Activity of Comparative Compounds EC50, 100-Ile (HIV-1/100-Ile) [µg/mL]	Antiviral Activity of Comparative Compounds EC50, WT (HIV-1(IIIB)) [µg/mL]	Antiviral Activity of Comparative Compounds EC50, 138-Lys (HIV-1/Lys-138) [µg/mL]	Antiviral Activity of Comparative Compounds EC50, 106-Ala (HIV-1/106-Ala) [µg/mL]
Cc1sccc1C(=O)Nc1ccc(Cl)c(C(=O)OC(C)C)c1 [Compound 31]	0.73 (≈ 2.16 µM)	5.5 (≈ 16.3 µM)	≥ 2	≥ 2	0.09 (≈ 0.266 µM)	0.93 (≈ 2.75 µM)	0.6 (≈ 1.78 µM)	> 2	–	–	–	–	–
Cc1sccc1C(=S)Nc1ccc(Cl)c(OCC(C)(C)C)c1 [Compound 29]	0.55 (≈ 1.55 µM)	6.2 (≈ 17.5 µM)	0.5 (≈ 1.41 µM)	0.43 (≈ 1.21 µM)	0.14 (≈ 0.396 µM)	0.05 (≈ 0.141 µM)	0.5 (≈ 1.41 µM)	> 2	–	–	–	–	–
Cn1ccc(C(=S)Nc2ccc(Cl)c(C=NOC(C)(C)C)c2)c1 [Compound 11]	0.045 (≈ 0.129 µM)	13 (≈ 37.2 µM)	0.13 (≈ 0.372 µM)	0.17 (≈ 0.486 µM)	0.029 (≈ 0.0829 µM)	0.13 (≈ 0.372 µM)	0.1 (≈ 0.286 µM)	> 2	–	–	–	–	–
CON=Cc1cc(NC(=O)c2ccoc2C)ccc1OC [Compound 47]	≥ 10	> 100	≥ 10	≥ 10	0.23 (≈ 0.798 µM)	≥ 10	≥ 10	≥ 10	–	–	–	–	–
CC=CCOc1cc(NC(=O)c2ccsc2C)ccc1Cl [Compound 45]	0.5 (≈ 1.55 µM)	87 (≈ 270 µM)	0.6 (≈ 1.86 µM)	0.95 (≈ 2.95 µM)	0.15 (≈ 0.466 µM)	0.65 (≈ 2.02 µM)	0.85 (≈ 2.64 µM)	> 10	–	–	–	–	–
CC=CCOc1cc(NC(=S)c2ccsc2C)ccc1Cl [Compound 1]	0.03 (≈ 0.0888 µM)	5.9 (≈ 17.5 µM)	0.048 (≈ 0.142 µM)	0.048 (≈ 0.142 µM)	0.0055 (≈ 0.0163 µM)	0.018 (≈ 0.0533 µM)	0.023 (≈ 0.0681 µM)	0.65 (≈ 1.92 µM)	–	–	–	–	–
Cc1sccc1C(=O)Nc1ccc(Cl)c(C(=O)OC2CCCCC2)c1 [Compound 23]	–	5.8 (≈ 15.3 µM)	–	≥ 2	–	–	–	> 2	0.27	0.7	0.03	0.73	0.22
CC(C)=CCOc1cc(NC(=O)c2ccoc2C)ccc1Cl [Compound 30]	0.65 (≈ 2.03 µM)	> 100	1.27 (≈ 3.97 µM)	1.67 (≈ 5.22 µM)	0.015 (≈ 0.0469 µM)	0.23 (≈ 0.719 µM)	0.34 (≈ 1.06 µM)	> 2	–	–	–	–	–
Cc1sccc1C(=S)Nc1ccc(Cl)c(C(=O)OC(C)C)c1 [Compound 16]	0.1 (≈ 0.283 µM)	5.9 (≈ 16.7 µM)	0.15 (≈ 0.424 µM)	0.33 (≈ 0.932 µM)	0.0041 (≈ 0.0116 µM)	0.03 (≈ 0.0848 µM)	0.077 (≈ 0.218 µM)	> 2	–	–	–	–	–
Cc1sccc1C(=S)Nc1ccc(Cl)c(OCC2CCCC2)c1 [Compound 28]	0.5 (≈ 1.37 µM)	4.3 (≈ 11.8 µM)	0.22 (≈ 0.601 µM)	0.33 (≈ 0.902 µM)	0.029 (≈ 0.0792 µM)	0.11 (≈ 0.301 µM)	0.23 (≈ 0.628 µM)	> 2	–	–	–	–	–
Cc1occc1C(=S)Nc1ccc(Cl)c(OCCC(C)C)c1 [Compound 44]	0.08 (≈ 0.237 µM)	> 100	0.035 (≈ 0.104 µM)	0.08 (≈ 0.237 µM)	0.0073 (≈ 0.0216 µM)	0.03 (≈ 0.0888 µM)	0.06 (≈ 0.178 µM)	> 10	–	–	–	–	–
Cc1occc1C(=S)Nc1ccc(Cl)c(OC(=O)OC(C)C)c1 [Compound 46]	5.5 (≈ 15.5 µM)	25 (≈ 70.7 µM)	4.5 (≈ 12.7 µM)	4 (≈ 11.3 µM)	0.37 (≈ 1.05 µM)	0.6 (≈ 1.7 µM)	3 (≈ 8.48 µM)	≥ 2	–	–	–	–	–
CC=CCOc1cc(NC(=S)c2ccoc2C)ccc1Cl [Compound 2]	0.075 (≈ 0.233 µM)	9 (≈ 28 µM)	0.048 (≈ 0.149 µM)	0.023 (≈ 0.0715 µM)	0.006 (≈ 0.0186 µM)	0.018 (≈ 0.0559 µM)	0.04 (≈ 0.124 µM)	0.65 (≈ 2.02 µM)	–	–	–	–	–
Cc1sccc1C(=S)Nc1ccc(Cl)c(SCC(=O)OC(C)(C)C)c1 [Compound 20]	0.14 (≈ 0.338 µM)	5.4 (≈ 13 µM)	0.34 (≈ 0.821 µM)	0.44 (≈ 1.06 µM)	0.13 (≈ 0.314 µM)	0.43 (≈ 1.04 µM)	0.15 (≈ 0.362 µM)	> 2	–	–	–	–	–

Reference: patent US5696151A, “Compounds useful for the inhibition of the replication of HIV-1 and HIV-1 mutants” (priority 1995, dated 1997)
